Experimental findings from patent US8835403B2, “Algin oligosaccharides and the derivatives thereof as well as the manufacture and the use of the same” (priority 2004, dated 2014) are described below.

Assay [1] has as its system AD mice induced by Aβ1-40. As to the kind of experiment: Step-through passive avoidance task of AD mice induced by Aβ1-40. The class given is in vivo. As to the method: Male Balb/c mice (18-22 g, purchased from Laboratory Centre of Shandong University) are weighed and randomly assigned to six groups as follows: a control group, a model group, a low-concentration (15 mg/kg) 6-mer-treated group, a middle-concentration (30 mg/kg) 6-mer-treated group, a high-concentration (60 mg/kg) 6-mer-treated group, and a Huperzine A-treated (HBY, with a concentration of 0.2 mg/kg) group. The mice were oral administered with corresponding drugs on day 3 after grouping. The drugs were administered once a day consecutively with a dosage of 0.5 ml/20 g until the experiment is completed. The mice of control and model groups were simultaneously administered with an equivalent amount of normal saline.
On the 25th day after Aβ injection, mice are further trained for step-through passive avoidance task. In the task, each mouse is placed in the illuminated compartment of the apparatus, facing away from the dark compartment, and the door is opened, allowing access to the dark compartment. Once the mouse enters the dark compartment, it receives an inescapable electric shock on the feet (36 V) through the stainless steel grid floor. The test is similarly performed after 24 h. The entry time of each mouse into the dark chamber (step-through latency, maximum testing limited to 3 min) and the number of entries into the dark compartment (number of errors) are recorded.
Each group has 8 animals. The data are presented as mean±SE. The symbol # means significant difference compared with the control group (P<0.05). * means significant difference compared with the model group (P<0.05). The step-through latency of Aβ1-40-treated group is shortened (P<0.01) and the error number is increased (P<0.05) compared with that of the control group, indicating the successful establishment of AD mice.

For a further assay, the system named is ChAT. As to the kind of experiment: Cerebral cortex ChAT activity of Aβ1-40-induced AD mice. The class given is in vivo.
In assay [2] the test system is primary cerebral cortex neurons of rat. Description: Protection of primary neurons impaired by aged Aβ25-35 (MTT). The conditions noted are these: 30 μM aged Aβ25-35 24 h, Aβ alone 54.5±8.9%. The class given is cell-based. As to the method: The primary cerebral cortex neurons of rat are cultured as the method of reference (Banker G A, et al., Rat hippocampal neurons in dispersed cell culture. Brain Res, 1977, 126:397-425). The cells cultured for 1 week are used in this experiment. That is to say, on the 8th day the cells are pretreated with a series of concentrations of 6-mer (final concentration of 0, 10, 50, 100 μg/ml) for 24 h, followed by the addition of aged Aβ25-35 (Firstly resolved in distilled water with a concentration of 1 mg/ml, then stayed at 37° C. for 7 days to get aged Aβ25-35 and stored at −20° C. for use) with a final concentration of 30 μM. After 24 h at 37° C., 10 μl of MTT with a concentration of 5 mg/ml is added. After 4 h at 37° C., the supernatant is removed and 150 μl of DMSO is added. Then the absorbance at 570 nm (630 nm as reference) is recorded with an ELISA reader (Rainbow, TECAN, Austria).

In the next assay the test system is SH-SY5Y cells. Description: Apoptosis of SH-SY5Y induced by Aβ25-35 (propidium iodide flow cytometry). The class given is cell-based. The conditions noted are these: 30 μM aged Aβ25-35 48 h, Aβ alone 24.8±1.9%. The protocol:
SH-SY5Y cells are incubated in 6-well plates at a density of 2×10^5 cells per well. The day after plating, cells are pretreated with varying concentrations (0, 50, 100 μg/ml) of 6-mer for 24 h, followed by the addition of 30 μM aged Aβ25-35 (purchased from Sigma. Co.). After 48 h at 37° C., cells are digested, collected, washed, centrifuged at 1200 rpm and incubated with […] of a mixture of 5 mg/ml propidium iodide (Hyclone Co.) and 100 U/ml RNase (Hyclone Co.). Then the cells are measured by flow cytometry (BD Co., US), with 8000 cells per sample

Assay [3] deals with T1, Aβ1-40 (Homo sapiens, UniProt P05067). Description: Fibril formation of Aβ1-40, Th-T fluorescence. The class given is biochemical. The conditions noted are these: 24 h. The protocol: Fresh Aβ1-40 is incubated alone or with 6-mer (final concentration of 10, 50, and 100 μg/ml, respectively) at 37° C. for 24 h. After incubation, Th-T is added and fluorescence intensity is monitored at […].
T1 sequence (P05067 672-711 limits assumed): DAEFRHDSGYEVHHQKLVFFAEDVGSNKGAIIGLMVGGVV

The target in assay [4] is T1, Aβ1-40. Description: Conformation of Aβ1-40 by CD spectra. The class given is biochemical. The following applies: 6-mer 100 μg/ml, Aβ1-40 250 μg/ml, 37° C., 12 h (FIG. 11C). As to the method: CD spectra (J-[…], JASCO, Japan) of monomeric Aβ1-40 (250 μg/ml in TBS (100 mM Tris, 50 mM NaCl, pH7.4)) incubated at 37° C. for 12 h is mainly characterized by β-sheet secondary structure (FIG. 11A).

Assay [5] concerns the target T1, Aβ1-40. As to the kind of experiment: SPR interaction of immobilized 6-mer and aged Aβ1-40. The class given is binding. As to the method:
SPR technique (BIAcore X, Uppsala, Sweden) is used to characterize the interaction of 6-mer and Aβ. Different degree of aged Aβ1-40 (aged for 0, 0.5, 1, 2, 4, 6 d at 37° C.) in HBS EP buffer solution (0.01 […], 150 mmol/L NaCl, 3.4 mmol/L EDTA-Na2, 0.005 vol % Tween-20, pH 7.4) with 5 concentrations are flowed through the 6-mer-immobilized sensor chip. The flow rate is 5 μl/min, and the injection volume is 10 μl. The binding sensorgramm is recorded and the sensor chip is regenerated with 2M NaCl.

For assay [6], the system named is diabetic mice induced by STZ. As to the kind of experiment: Blood glucose of diabetic mice induced by streptozotocin (STZ). The class given is in vivo. The conditions noted are these: blood on 11th day, STZ 150 mg/kg i.p. As to the method:
Sixty male NIH mice (weighed 18-22 g) are randomly divided to control, model, 50, 150, 450 mg/kg 6-mer-treated and 5 mg/kg dimethyldiguanide-treated groups. The mice are injected intraperitoneally with 150 mg/kg STZ except control group at the 1st day. Then the mice are given accordingly drugs consecutively for 10 days and eyeballs are picked out to extract blood on the 11th day. The blood is taken to measure the glucose concentration.

[7] abbreviates: 50 μg/ml 6-mer 24 h pretreatment.
Where [8] appears, read: 100 μg/ml 6-mer 24 h pretreatment.

As to `O=C(O)C1OC(OC2C(C(=O)O)OC(OC3C(C(=O)O)OC(OC4C(C(=O)O)OC(OC5C(C(=O)O)OC(OC6C(C(=O)O)OC(O)C(O)C6O)C(O)C5O)C(O)C4O)C(O)C3O)C(O)C2O)C(O)C(O)C1O` (centres unmarked) [6-mer, mannuronic hexasaccharide], the number of errors entry in assay [1] (6-mer-treated groups, vs model group (FIG. 6)) is “significantly reduced”. Moreover, the step-through latency result in assay [1] (30 and 60 mg/kg 6-mer, vs model group (FIG. 5)) is “significantly prolonged”. The “ChAT activity (pmol/mg prot./min)” value in the assay on ChAT (15 mg/kg) amounted to 90.94 ± 3.77 pmol/mg prot./min; in the assay with ChAT (30 mg/kg), 99.98 ± 5.07 pmol/mg prot./min; in the assay with ChAT (60 mg/kg) it was 94.69 ± 5.83 pmol/mg prot./min. In addition, the results for the survived rate in assay [2] (10 μg/ml 6-mer 24 h pretreatment), in assay [2] (setting [7]) and in assay [2] (setting [8]) were 72.0±11.2%, 77.1±8.1% and 82.3±11.6%, respectively. Further, the figures for the “percentage of hypodiploid cells” value in the assay on SH-SY5Y cells (setting [7]) and with SH-SY5Y cells (setting [8]) were 10.2±1.3% and 5.1±0.7%, respectively. Moreover, the Th-T fluorescence intensity on Aβ1-40 [3] (10 μg/ml 6-mer with fresh Aβ1-40, 37° C.) was determined as 10.46±0.94; at Aβ1-40 [3] (50 μg/ml 6-mer with fresh Aβ1-40, 37° C.), 9.18±1.32; at Aβ1-40 [3] (100 μg/ml 6-mer with fresh Aβ1-40, 37° C.), 7.81±1.38. The “β-sheet formation of monomeric Aβ1-40 (CD)” value on Aβ1-40 [4] is listed as “prevents the β-sheet formation”. The dissociation constant (Kd) on Aβ1-40 [5] (Aβ1-40 aged 0.5 d at 37° C.) turned out to be 107 nM; on Aβ1-40 [5] (Aβ1-40 aged 1 d at 37° C.) it was 90.6 nM; at Aβ1-40 [5] (Aβ1-40 aged 2 d at 37° C.), 54.3 nM; on Aβ1-40 [5] (Aβ1-40 aged 4 d at 37° C.), 21.5 nM; on Aβ1-40 [5] (Aβ1-40 aged 6 d at 37° C.), 14.5 nM; on Aβ1-40 [5] (fresh Aβ1-40 (aged 0 d)), 685 nM. Besides, the “Blood glucose concentration” value in assay [6] (50 mg/kg for 10 days) is 219.4 ± 67.8 mg/dL; in assay [6] (150 mg/kg for 10 days), 179.6 ± 69.8 mg/dL; in assay [6] (450 mg/kg for 10 days) it was 162.5 ± 3 mg/dL.
